Laboratory results taken from ChEMBL document CHEMBL1201862, “PubChem BioAssay data set” (2004).
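Dose response: 5 concentrations. Exposure: 48 h. Format: 96-well plates. Endpoint: linear interpolation; highest concentration if not reached. GI50 = concentration required for 50% inhibition of growth.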 Activity calls are given as the source filed them. Cut-off read from the data, not from the text of the source: active = GI50 up to about 1.1 µM and inactive = higher.

Assays:
Assay in all cases: growth of human tumour cells (NCI), 48 h
RPMI-8226 = test system: RPMI-8226
LOX IMVI = test system: LOX IMVI
NCI-H460 = test system: NCI-H460
OVCAR-4 = test system: OVCAR-4
HCT-15 = test system: HCT-15
OVCAR-8 = test system: OVCAR-8
M14 = test system: M14
SF-295 = test system: SF-295
DU-145 = test system: DU-145
SNB-19 = test system: SNB-19
HL-60 = test system: HL-60
ACHN = test system: ACHN
A549 = test system: A549
NCI-H522 = test system: NCI-H522
786-0 = test system: 786-0
TK-10 = test system: TK-10
RXF 393 = test system: RXF 393
T47D = test system: T47D

## O=C1c2ccccc2-c2nc(-c3cccnc3)cc3c2c1nc1ccccc13
RPMI-8226
  GI50: 45.8 µM (inactive)
LOX IMVI
  GI50: 40.3 µM (inactive)
NCI-H460
  GI50: 22.8 µM (inactive)
OVCAR-4
  GI50: > 100 µM (inactive)
HCT-15
  GI50: > 100 µM
OVCAR-8
  GI50: > 100 µM (inactive)
M14
  GI50: 14.3 µM (inactive)
SF-295
  GI50: 58.3 µM (inactive)
DU-145
  GI50: > 100 µM (inactive)
SNB-19
  GI50: > 100 µM (inactive)
HL-60
  GI50: 21.2 µM (inactive)
ACHN
  GI50: > 100 µM (inactive)
A549
  GI50: > 100 µM (inactive)
NCI-H522
  GI50: > 100 µM (inactive)
786-0
  GI50: > 100 µM (inactive)
TK-10
  GI50: > 100 µM (inactive)

## O=C1NC2(CCN(CCCC3(c4ccc(F)cc4)OCCO3)CC2)Oc2ccccc21
RPMI-8226
  GI50: 61 µM (inactive)
LOX IMVI
  GI50: > 100 µM (inactive)
RXF 393
  GI50: > 100 µM (inactive)
NCI-H460
  GI50: 91.2 µM (inactive)
OVCAR-4
  GI50: > 100 µM (inactive)
HCT-15
  GI50: 71.4 µM
OVCAR-8
  GI50: > 100 µM (inactive)
M14
  GI50: 73.5 µM (inactive)
SF-295
  GI50: > 100 µM (inactive)
DU-145
  GI50: > 100 µM (inactive)
SNB-19
  GI50: > 100 µM (inactive)
HL-60
  GI50: 42.7 µM (inactive)
ACHN
  GI50: > 100 µM (inactive)
A549
  GI50: > 100 µM (inactive)
T47D
  GI50: 35.8 µM (inactive)
786-0
  GI50: > 100 µM (inactive)
TK-10
  GI50: > 100 µM (inactive)

## N=C(N)N/N=C/c1c(-c2ccc([N+](=O)[O-])cc2)nc2sccn12
RPMI-8226
  GI50: 5.27 µM (inactive)
LOX IMVI
  GI50: 1.86 µM (inactive)
RXF 393
  GI50: 2.55 µM (inactive)
NCI-H460
  GI50: 2 µM (inactive)
OVCAR-4
  GI50: 1.46 µM (inactive)
HCT-15
  GI50: 10.2 µM
OVCAR-8
  GI50: 2.12 µM (inactive)
M14
  GI50: 1.91 µM (inactive)
SF-295
  GI50: 1.39 µM (inactive)
DU-145
  GI50: 1.82 µM (inactive)
SNB-19
  GI50: 1.38 µM (inactive)
HL-60
  GI50: 2.38 µM (inactive)
ACHN
  GI50: 2.64 µM (inactive)
A549
  GI50: 1.78 µM (inactive)
NCI-H522
  GI50: 2 µM (inactive)
T47D
  GI50: 1.74 µM (inactive)
786-0
  GI50: 1.47 µM (inactive)
TK-10
  GI50: 1.82 µM (inactive)

## CC[C@H](CCCC[C@H]1CC[C@@H]2CC(=O)C[C@H]12)OC
RPMI-8226
  GI50: 34 µM (inactive)
LOX IMVI
  GI50: > 100 µM (inactive)
NCI-H460
  GI50: > 100 µM (inactive)
OVCAR-4
  GI50: > 100 µM (inactive)
OVCAR-8
  GI50: > 100 µM (inactive)
M14
  GI50: > 100 µM (inactive)
SF-295
  GI50: 65.9 µM (inactive)
SNB-19
  GI50: > 100 µM (inactive)
HL-60
  GI50: 24 µM (inactive)
ACHN
  GI50: > 100 µM (inactive)
A549
  GI50: 93.8 µM (inactive)
NCI-H522
  GI50: 65.8 µM (inactive)
T47D
  GI50: 58.9 µM (inactive)
786-0
  GI50: > 100 µM (inactive)
TK-10
  GI50: > 100 µM (inactive)

## CCOc1nc(N)nc(C)c1/N=N/c1ccc(Cl)cc1
RPMI-8226
  GI50: 25.9 µM (inactive)
LOX IMVI
  GI50: > 100 µM (inactive)
RXF 393
  GI50: > 100 µM (inactive)
NCI-H460
  GI50: > 100 µM (inactive)
OVCAR-4
  GI50: > 100 µM (inactive)
HCT-15
  GI50: > 100 µM
OVCAR-8
  GI50: > 100 µM (inactive)
M14
  GI50: > 100 µM (inactive)
SF-295
  GI50: 25.5 µM (inactive)
DU-145
  GI50: > 100 µM (inactive)
SNB-19
  GI50: > 100 µM (inactive)
HL-60
  GI50: > 100 µM (inactive)
ACHN
  GI50: > 100 µM (inactive)
A549
  GI50: > 100 µM (inactive)
NCI-H522
  GI50: 69.7 µM (inactive)
T47D
  GI50: 73.8 µM (inactive)
786-0
  GI50: > 100 µM (inactive)
TK-10
  GI50: > 100 µM (inactive)

## Cc1ccc2nc(NC(=O)C(=O)C(C(=O)c3ccc4ccccc4c3)C3OC(=O)c4ccccc43)sc2c1 (stereo not given)
RPMI-8226
  GI50: 9.25 µM (inactive)
LOX IMVI
  GI50: 10.2 µM (inactive)
RXF 393
  GI50: 1.87 µM (inactive)
NCI-H460
  GI50: 4.43 µM (inactive)
OVCAR-4
  GI50: 22.7 µM (inactive)
HCT-15
  GI50: > 10 µM
OVCAR-8
  GI50: 7.74 µM (inactive)
M14
  GI50: 15 µM (inactive)
SF-295
  GI50: 4.61 µM (inactive)
SNB-19
  GI50: 6.55 µM (inactive)
ACHN
  GI50: 16.5 µM (inactive)
A549
  GI50: 11.5 µM (inactive)
NCI-H522
  GI50: 12 µM (inactive)
786-0
  GI50: 6.15 µM (inactive)

## CC1(C)N=C(N)N=C(N)N1c1ccc(OCC(=O)Nc2cccc(S(=O)(=O)F)c2)c(Cl)c1
RPMI-8226
  GI50: > 33.3 µM (inactive)
LOX IMVI
  GI50: 4.9 µM (inactive)
NCI-H460
  GI50: 5.48 µM (inactive)
OVCAR-4
  GI50: > 100 µM (inactive)
HCT-15
  GI50: 9.75 µM
OVCAR-8
  GI50: 5.82 µM (inactive)
M14
  GI50: 13.9 µM (inactive)
SF-295
  GI50: 10.2 µM (inactive)
DU-145
  GI50: > 25.1 µM (inactive)
SNB-19
  GI50: 7.8 µM (inactive)
HL-60
  GI50: 3.75 µM (inactive)
ACHN
  GI50: 30 µM (inactive)
A549
  GI50: 3.52 µM (inactive)
NCI-H522
  GI50: 51.8 µM (inactive)
T47D
  GI50: 27.2 µM (inactive)
786-0
  GI50: 4.9 µM (inactive)
TK-10
  GI50: 7.24 µM (inactive)
